Several values for one entry are separate records, joined by “and”; a condition that tells them apart may be missing. Identical values can stand only once. Inconclusive results and toxic doses are left out.
System: L1210 leukemia ip in BDF1 mice, survival T/C
Test: NCI In Vivo Anticancer Drug Screen. Data for tumor model L1210 Leukemia (intraperitoneal) in B6D2F1 (BDF1) mice
Conditions: endpoint: mean survival time, higher = longer survival
Summary of the method: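 Value reflects the ratio of survival in compound-treated mice to survival in vehicle-treated controls, with both groups carrying the same transplanted tumor.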

[1] = dose: 50.0 mg/kg/injection, schedule: Q01DX009 (ip), vehicle: Klucel (hydroxypropylcellulose) (HPC)
[2] = dose: 100.0 mg/kg/injection, schedule: Q01DX009 (ip), vehicle: Klucel (hydroxypropylcellulose) (HPC)
[3] = dose: 200.0 mg/kg/injection, schedule: Q01DX009 (ip), vehicle: Klucel (hydroxypropylcellulose) (HPC)
[4] = dose: 100.0 mg/kg/injection, schedule: Q01DX001 (ip), vehicle: Klucel (hydroxypropylcellulose) (HPC)
[5] = dose: 200.0 mg/kg/injection, schedule: Q01DX001 (ip), vehicle: Klucel (hydroxypropylcellulose) (HPC)
[6] = dose: 100.0 mg/kg/injection, schedule: Q01DX009 (ip), vehicle: saline with Tween-80
[7] = dose: 200.0 mg/kg/injection, schedule: Q01DX009 (ip), vehicle: saline with Tween-80
[8] = dose: 100.0 mg/kg/injection, schedule: Q04DX003 (ip), vehicle: Klucel (hydroxypropylcellulose) (HPC)
[9] = dose: 200.0 mg/kg/injection, schedule: Q04DX003 (ip), vehicle: Klucel (hydroxypropylcellulose) (HPC)
[10] = dose: 400.0 mg/kg/injection, schedule: Q04DX003 (ip), vehicle: Klucel (hydroxypropylcellulose) (HPC)
[11] = dose: 200.0 mg/kg/injection, schedule: Q01DX001 (ip), vehicle: saline
[12] = dose: 12.5 mg/kg/injection, schedule: Q01DX009 (ip), vehicle: water
[13] = dose: 25.0 mg/kg/injection, schedule: Q01DX009 (ip), vehicle: water
[14] = dose: 400.0 mg/kg/injection, schedule: Q01DX009 (ip), vehicle: Klucel (hydroxypropylcellulose) (HPC)
[15] = dose: 100.0 mg/kg/injection, schedule: Q04DX003 (ip), vehicle: saline with Tween-80
[16] = dose: 200.0 mg/kg/injection, schedule: Q04DX003 (ip), vehicle: saline with Tween-80
[17] = dose: 400.0 mg/kg/injection, schedule: Q04DX003 (ip), vehicle: saline with Tween-80

With `Nc1nc(N)c(CCCCc2ccccc2)c(-c2ccccc2)n1` the T/C [1] was 98 % of control, the T/C [2] was 95 % of control and the T/C [3] was 95 % of control.
For `Cc1ccc(S(=O)(=O)N/N=C2/CC(C)(C)CC(=O)C2(C)C)cc1`, the T/C (dose: 100.0 mg/kg/injection, schedule: Q04DX002 (ip), vehicle: Klucel (hydroxypropylcellulose) (HPC)) was 102 % of control, the T/C (dose: 200.0 mg/kg/injection, schedule: Q04DX002 (ip), vehicle: Klucel (hydroxypropylcellulose) (HPC)) was 102 % of control and the T/C (dose: 400.0 mg/kg/injection, schedule: Q04DX002 (ip), vehicle: Klucel (hydroxypropylcellulose) (HPC)) was 102 % of control.
With `CN1CCC/C1=N\c1nn[nH]n1` the T/C [4] was 106 % of control, the T/C [5] was 97 % of control and the T/C (dose: 400.0 mg/kg/injection, schedule: Q01DX001 (ip), vehicle: Klucel (hydroxypropylcellulose) (HPC)) was 93 % of control.
`COc1ccccc1N=Nc1cc(C)c(C)cc1O` was tested, and the T/C (dose: 50.0 mg/kg/injection, schedule: Q01DX009 (ip), vehicle: saline with Tween-80) was 106 % of control, the T/C [6] was 103 % of control and the T/C [7] was 95 % of control.
In the case of `CC(C)c1ccc(C(c2c(O)c3ccccc3oc2=O)c2c(O)c3ccccc3oc2=O)cc1`, the T/C [2] is reported as 90 % of control, the T/C [8] is reported as 106 % of control and the T/C [3] is reported as 103 % of control. For the same molecule, the T/C [9] was 100 % of control and the T/C [10] was 105 % of control.
In the case of `S=c1nc[nH]c2c1ncn2C1CCCCO1` (stereo not drawn), the T/C (dose: 16.0 mg/kg/injection, schedule: Q01DX Z (ip), vehicle: carboxymethylcellulose (CMC)) is reported as 120 % of control, the T/C (dose: 21.0 mg/kg/injection, schedule: Q01DX009 (ip), vehicle: saline) is reported as 103 % of control and the T/C (dose: 36.0 mg/kg/injection, schedule: Q01DX009 (ip), vehicle: saline) is reported as 120 % of control. The T/C (dose: 88.0 mg/kg/injection, schedule: Q01DX001 (ip), vehicle: saline) was 112 % of control, the T/C (dose: 100.0 mg/kg/injection, schedule: Q01DX001 (ip), vehicle: carboxymethylcellulose (CMC)) was 124 % of control and the T/C (dose: 100.0 mg/kg/injection, schedule: Q01DX009 (ip), vehicle: saline) was 118 % of control. The T/C (dose: 120.0 mg/kg/injection, schedule: Q01DX009 (ip), vehicle: saline) was 107 % of control, the T/C (dose: 125.0 mg/kg/injection, schedule: Q01DX Z (ip), vehicle: carboxymethylcellulose (CMC)) was 94 % of control and the T/C (dose: 133.0 mg/kg/injection, schedule: Q01DX001 (ip), vehicle: saline) was 122 % of control. For the same molecule, the T/C (dose: 177.0 mg/kg/injection, schedule: Q01DX001 (ip), vehicle: carboxymethylcellulose (CMC)) was 155 % of control, the T/C [11] was 155 % of control and the T/C (dose: 267.0 mg/kg/injection, schedule: Q01DX001 (ip), vehicle: carboxymethylcellulose (CMC)) was 159 % of control. For the same molecule, the T/C (dose: 600.0 mg/kg/injection, schedule: Q01DX001 (ip), vehicle: carboxymethylcellulose (CMC)) was 150 % of control and 156 % of control, the T/C (dose: 900.0 mg/kg/injection, schedule: Q01DX001 (ip), vehicle: carboxymethylcellulose (CMC)) was 104 % of control and the T/C (dose: 1350.0 mg/kg/injection, schedule: Q01DX001 (ip), vehicle: carboxymethylcellulose (CMC)) was 96 % of control.
`O=[N+]([O-])c1cccc(-[n+]2cc([O-])on2)c1` was tested, and the T/C [1] was 94 % of control, the T/C [8] was 105 % of control and the T/C [9] was 96 % of control.
For `CN(C)Cc1cccc(N)c1`, the T/C [12] was 102 % of control, the T/C [13] was 100 % of control and the T/C (dose: 25.0 mg/kg/injection, schedule: Q04DX003 (ip), vehicle: water) was 104 % of control. For the same molecule, the T/C (dose: 50.0 mg/kg/injection, schedule: Q01DX009 (ip), vehicle: water) was 100 % of control, the T/C (dose: 50.0 mg/kg/injection, schedule: Q04DX003 (ip), vehicle: water) was 95 % of control and the T/C (dose: 100.0 mg/kg/injection, schedule: Q04DX003 (ip), vehicle: water) was 96 % of control and 102 % of control.
For `Cc1ccc2nc(Cl)cc(=O)n2c1`, the T/C (dose: 50.0 mg/kg/injection, schedule: Q01DX001 (ip), vehicle: saline) was 97 % of control, the T/C (dose: 100.0 mg/kg/injection, schedule: Q01DX001 (ip), vehicle: saline) was 97 % of control and the T/C [11] was 97 % of control.
With `Cc1ccc(Oc2c3c(nc4ccccc24)CCCC3)cc1` the T/C [2] was 104 % of control, the T/C [8] was 101 % of control and the T/C [3] was 98 % of control. For the same molecule, the T/C [9] was 96 % of control, the T/C [14] was 96 % of control and the T/C [10] was 93 % of control.
With `O=C1CCCCCCCCC(=O)CCCCCCCC1` the T/C [15] was 89 % of control, the T/C [16] was 86 % of control and the T/C [17] was 100 % of control.
In the case of `O=c1[nH]c(=O)n(Cc2ccccc2)cc1Cc1cccc(OCc2ccccc2)c1`, the T/C [15] is reported as 97 % of control, the T/C [16] is reported as 96 % of control and the T/C [17] is reported as 97 % of control.
For `COc1ccc(C(O)(c2ccccc2)C(OC(=O)c2cc([N+](=O)[O-])cc([N+](=O)[O-])c2)c2ccccc2)cc1` (stereo not drawn), the T/C [6] was 91 % of control, the T/C [7] was 96 % of control and the T/C (dose: 400.0 mg/kg/injection, schedule: Q01DX009 (ip), vehicle: saline with Tween-80) was 95 % of control.
For `NC(=O)/C=C/c1c[nH]c2nccnc12`, the T/C (dose: 1.56 mg/kg/injection, schedule: Q01DX009 (ip), vehicle: water) was 100 % of control, the T/C (dose: 3.12 mg/kg/injection, schedule: Q01DX009 (ip), vehicle: water) was 95 % of control and the T/C (dose: 6.25 mg/kg/injection, schedule: Q01DX009 (ip), vehicle: water) was 100 % of control. For the same molecule, the T/C [12] was 103 % of control and the T/C [13] was 86 % of control and 90 % of control.
For `CCCCC(CC)(CC)OC(=O)c1ccc([N+](=O)[O-])cc1`, the T/C (dose: 100.0 mg/kg/injection, schedule: Q04DX002 (ip), vehicle: saline with Tween-80) was 87 % of control, the T/C (dose: 200.0 mg/kg/injection, schedule: Q04DX002 (ip), vehicle: saline with Tween-80) was 106 % of control and the T/C (dose: 400.0 mg/kg/injection, schedule: Q04DX002 (ip), vehicle: saline with Tween-80) was 98 % of control.
For `O=P(N=C=S)(N=C=S)N=C=S`, the T/C (dose: 75.0 mg/kg/injection, schedule: Q01DX001 (ip), vehicle: other) was 114 % of control.
In the case of `CSc1ccc(NC(=O)Nc2cc(C(C)C)ccc2C)cc1`, the T/C [2] is reported as 103 % of control, the T/C [3] is reported as 104 % of control and the T/C [14] is reported as 98 % of control.
With `Cc1nc(N)nc(N)c1CCCCc1ccc(N)cc1` the T/C [4] was 92 % of control and the T/C [5] was 101 % of control.

— PubChem BioAssay AID248 (DTP/NCI, 2004)
